Data reported in patent US9399649B2, “Compounds for treating spinal muscular atrophy” (PTC Therapeutics Inc., priority 2012, dated 2016).

Test system: full length and Δ7 SMN2 mRNA
Assay: SMN2 mRNA RT-qPCR splicing assay in animal tissues
Assay type: in vivo
Settings: C/C-allele SMA mice, brain and muscle, 10 mg/kg oral BID for 10 days, FIG. 6
Protocol: The reverse transcription-quantitative PCR-based (RT-qPCR) assay is used to quantify the levels of the full length and Δ7 SMN2 mRNA in tissues from mice treated with test compound.
C/C-allele SMA mice are treated by oral gavage two times per day (BID) for 10 days with test compounds re-suspended in 0.5% HPMC and 0.1% Tween-80. Tissue samples were collected and snap frozen for RNA purification.
Tissue samples (20-40 mg) are homogenized in QIAzol Lysis Reagent for 2 minutes at 20 Hz in the TissueLyser II using one stainless steel bead. After addition of chloroform, the homogenate is separated into aqueous and organic phases by centrifugation. RNA partitioned to the upper, aqueous phase is extracted and ethanol is added to provide appropriate binding conditions. The sample is then applied to the RNeasy spin column from the RNeasy Mini Kit, where total RNA binds to the membrane. The RNA is eluted in RNase-free water then stored at −20° C. and subsequently analyzed using the TaqMan RT-qPCR on the 7900HT Thermocycler. Total RNA is diluted ten fold and 2.5 μL, of the diluted sample is added to the TaqMan RT-qPCR mixture.
SMN2 spliced products are identified using the following primers and probes in Table 7. Primer SMN FL Forward B (SEQ ID NO. 7) hybridizes to a nucleotide sequence in exons 7 and 8, primer SMN Δ7 Forward B (SEQ ID NO. 8) hybridizes to a nucleotide sequence in exons 6 and 8, primer SMN Reverse B (SEQ ID NO. 9) hybridizes to a nucleotide sequence in exon 8, probe SMN Probe B (SEQ ID NO. 10) hybridizes to a nucleotide sequence in exon 8. These primers and probe hybridize to nucleotide sequences common to human SMN1 and SMN2 mRNA. Since the SMA patient cells used in Example 5 contain only the SMN2 gene, RT-qPCR can quantify only SMN2 full-length and Δ7 mRNA.
The SMN forward and reverse primers are used at final concentrations of 0.4 μM. The SMN probe is used at a final concentration of 0.15 μM. The SMN-GAPDH Mix (10 μL, total volume) is prepared by combining 5 μL of 2×RT-PCR buffer, 0.4 μL of 25×RT-PCR enzyme mix, 0.5 μL of 20×GAPDH primer-probe mix, 1.505 μL of water, 2.5 μL of RNA solution, 0.04 μL of 100 μM forward primer, 0.04 μL of 100 μM reverse primer, and 0.015 μL of 100 μM SMN probe. […]
The increase of SMN2 FL and decrease in SMN2 Δ7 mRNA relative to those in tissues from animals treated with vehicle control are determined from real-time PCR data using a modified ΔΔCt method (as described in Livak and Schmittgen, Methods, 2001, 25:402-8). The amplification efficiency (E) is calculated from the slope of the amplification curve for SMN2 FL, SMN2 Δ7, and GAPDH individually. The abundances of SMN2 FL, SMN2 Δ7, and GAPDH are then calculated as (1+E)^−Ct, where Ct is the threshold value for each amplicon. […]

Row | SMILES | SMN2 FL mRNA in tissues | SMN2 Δ7 mRNA in tissues
1 | Cc1cn2cc(-c3cc4ccc(N5CCN(C)CC5)cc4c(=O)o3)nc2c(C)n1 [Cpd 65, 3-(6,8-dimethylimidazo[1,2-a]pyrazin-2-yl)-7-(4-methylpiperazin-1-yl)-1H-isochromen-1-one] | substantially more SMN2 FL mRNA | less SMN2 Δ7 mRNA
2 | Cc1cn2cc(-c3cc4ccc(N5CCN6CCC[C@H]6C5)cc4c(=O)o3)nc2c(C)n1 [Cpd 69, 3-(6,8-dimethylimidazo[1,2-a]pyrazin-2-yl)-7-[(8aS)-hexahydropyrrolo[1,2-a]pyrazin-2(1H)-yl]-1H-isochromen-1-one] | substantially more SMN2 FL mRNA | less SMN2 Δ7 mRNA
